These results are taken from patent publication US20240133870A1, “COMBINED TREATMENT FOR CANCER” (Yeda Research and Development Co. Ltd., priority 2021, published 2024).

Assay [1] relates to G361 melanoma cells. The assay is described as follows: FGFR inhibitor abrogation of factor-mediated resistance (GFP, rScore). The class given is cell-based, human. Particulars: vemurafenib 2 μM; EMAPII or AIMP1 10 ng/ml; FGFR inhibitor 0.5 μM. How it is done: PLX4720—BRAFi, 2 μM; PD184352—MEKi, 1 μM, EMAPII—50 ng/ml. P-value of the difference between GFP(drug)/GFP(no-treatment) and GFP(drug+EMAPII)/GFP(no-treatment), at day 7, was calculated by two-sided t-test. ** p<0.01, *** p<0.001. Average rScore (+/−SE) was calculated from at least four different experiments. […] A total of 69 experiments are shown. […] The effect of FGF2 (10 ng/ml), EMAPII (10 ng/ml) or AIMP1 (10 ng/ml) on G361 μmelanoma cells treated with vemurafenib (2 μM) was measured with or without the FGFR inhibitor PD17307 (0.5 μM). Data represent an average of 4 to 8 experiments. P-value was calculated by two-sided t-test. *** p<0.001. Error bars represent standard error. […] 18 putative AIMP1 receptors were knocked down by shRNAs (on average 6.8 shRNAs/gene) in the G361 cell line. shRNAs toward luciferase served as a negative control. The effect of AIMP1 (50 ng/ml) on the sensitivity to PLX4720 (2 μM) was tested in all knockdown clones and normalized to no-shRNA control. Results represent the average of 3-8 experiments. Error bars represent standard error. P-values were calculated by two-sided t-test relative to luciferase. * p<0.05, Q-value=0.1. […] The average of 4 experiments is presented. Error bars represent standard error. P-value was calculated by two-sided t-test. *** p<0.001.

Assay [2] deals with SK-MEL-5 BRAF (V600E) melanoma cells. The assay is described as follows: Co-culture of stroma (WI-38 or HS-5) and cancer cells. The class given is cell-based, human. Particulars: co-culture with WI-38; inhibitor added to vemurafenib. As for the experimental part: SK-MEL-5 BRAF (V600E) melanoma cells were co-cultured with the lung-derived stromal cell line WI-38 or with the bone marrow-derived stromal cell line HS-5 with or without vemurafenib (4 μM). […] Vehicle—DMSO, EGFRi—gefitinib (0.1 μM), EGFRi/HER2i—lapatinib (10 nM), METi—crizotinib (0.1 μM), FGFRi—AZD4547 (50 nM), NFkB/TNFRi—CAPE (10 μM), TGFBRi-LY2109761 (0.5 μM), gp130i—SC144 (1 nM). […] Error bars represent standard error. […] Error bars represent standard error. […] Human BRAF (V600E) melanoma cell lines UACC62 or G361 were used to generate xenograft tumor models in various tissues of nude mice. When tumors reached a volume of 500-700 μmm^3, they were resected, sliced, and cultured ex-vivo in the presence of different drug combinations or DMSO control. Following 4 days of drug treatment, slices were fixed, embedded in paraffin blocks, and subjected to immunohistochemistry, using anti-pERK antibody, or to immuno-fluorescence, using anti-pFGFR1 antibody. BRAFi (vemurafenib, 4 μM), FGFRi (AZD4547, 2 μM). Scale bar represents 50 μm.
Four hours later, the melanoma BRAF (V600E) mutated cell line SK-MEL-5 was seeded on top of the stromal cells at a concentration of 1700 cells per well, or seeded without stroma. […] Concentrations of the inhibitors were based on dose curves with SK-MEL-5. For each inhibitor of potential mechanism of resistance, the maximal concentration with minimal effect (toxicity) on cell growth was selected (Cmax).
To compare rScore value of stroma-mediated resistance with or without a given inhibitor, the rScore values of each inhibitor in the presence of stroma, was calculated. As a reduction in rScore may stem from mere toxicity of the inhibitor, rather than the abrogation of the stroma mediated resistance, each inhibitor rScore was penalized by its toxicity.
rScoreinhibitor=rScoreinhibitor+(rScorestroma−rScoreinhibitor)*tOxicitY(Cmax)inhibitor

The test system of assay [3] is HCC4006 xenografts. The assay is described as follows: EVOC viability. Format: cell-based, human. Particulars: crizotinib 8 μM added to erlotinib 4 μM. As for the experimental part:
Vehicle—DMSO, METi-crizotinib 8 μM, EGFRi—erlotinib 4 μM. Each black dot in a given treatment condition represents a different tumor. P-values were calculated by one-sided t-test. * P<0.05. Error bars represent standard error. […] Viability percentage is presented per treatment. Scale bar represents 50 μm.
Freshly resected tumors were cut to 250 μm slices (Compresstome, VF-300) in cold Williams-E medium (Sigma, W1878). Slices were placed on the surface of titanium meshes which were pre-incubated in DMEM/F-12 (HAM) (01-170-1A, BI) supplemented with 10% FCS, 100 units/ml Penicillin and Streptomycin, 2 μmM Glutamine, […], and 2.5 μg/ml Amphotericin B (sigma, A2942), at 37° C. and 80% oxygen/5% CO2. […]
Immunohistochemistry of EVOC tissues: To assess response therapy, 4 μm FFPE tissue slices were stained with H&E, or with specific antibodies: anti-pERK (Cell Signaling, #4370) followed by HRP conjugated secondary antibody (anti-Rabbit HRP, ZUC032, ZytoChem) and DAB staining (DAB substrate kit, DAB057, ZytoChem). […] All slides were scanned using the Pannoramic SCAN II (3[…]) and analyzed by a pathologist. The percentage of viable cancer cells was morphologically assessed on H&E stained sections by a pathologist as the ratio between viable cancer cell area and total cancer area (viable cancer cells plus necrotic cancer cells).

Assay [4] deals with human NSCLC tumor biopsy. The assay is described as follows: EVOC of NSCLC patient biopsies, viability. Format: cell-based. Particulars: treatment-naïve patient; in combination with osimertinib 4 μM. An excerpt: Error bars represent standard error. […] Scale bar represents 50 μm. […] Error bars represent standard error. […] Scale bar represents 50 μm.
Scale bar represents 50 μm. […] Scale bar represents 50 μm. […] Scale bar represents 50 μm.

The subject of assay [5] is H1975 xenografts. The assay is described as follows: EVOC viability. The class given is cell-based, human. Particulars: added to afatinib 3-4 μM.
Procedure: Vehicle—DMSO, FGFRi—AZD4547 2-4 μM, INSRi—linsitinib 2 μM, METi—crizotinib 2-4 μM, EGFRi—afatinib 3-4 μM. Each black dot in a given treatment condition represents a different tumor. P-values were calculated by two-sided t-test. ** P<0.01, * P<0.05. Error bars represent standard error. […] Viability percentage is given per treatment combination. Scale bar represents 50 μm. […] Error bars represent standard error. […] EGFRi—gefitinib 1.6 μM, FGFRi—AZD4547 0.2 μM. The percentage of viable cancer cells was morphologically assessed on H&E stained sections by a pathologist as the ratio between viable cancer cell area and total cancer area (viable cancer cells plus necrotic cancer cells). […] Viability score was calculated based on the entire field of view. […]
Immunohistochemistry of EVOC tissues: To assess response therapy, 4 μm FFPE tissue slices were stained with H&E, or with specific antibodies: anti-pERK (Cell Signaling, #4370) followed by HRP conjugated secondary antibody (anti-Rabbit HRP, ZUC032, ZytoChem) and DAB staining (DAB substrate kit, DAB057, ZytoChem). […] All slides were scanned using the Pannoramic SCAN II (3[sequence]) and analyzed by a pathologist. The percentage of viable cancer cells was morphologically assessed on H&E stained sections by a pathologist as the ratio between viable cancer cell area and total cancer area (viable cancer cells plus necrotic cancer cells).

For the compound `CCN(CC)CCCCNc1ncc2cc(-c3cc(OC)cc(OC)c3)c(NC(=O)NC(C)(C)C)nc2n1` [PD17307], in assay [1], the “abrogation of EMAPII/AIMP1-mediated resistance” value was “abrogates EMAPII/AIMP1-mediated resistance”.

With `C[C@@H](Oc1cc(-c2cnn(C3CCNCC3)c2)cnc1N)c1c(Cl)ccc(F)c1Cl` [crizotinib], in assay [2], the “abrogation of stroma-mediated resistance to vemurafenib” value is reported as “abrogated the resistance effect of WI-38”. For the same compound, the “innate resistance to EGFRi” value in assay [3] was “reduced innate resistance to the EGFRi erlotinib”. Besides, the cancer cell viability entry in assay [4] was “synergistic killing effect”. In assay [5], the cell viability result is “significantly reduced cell viability”.
